For 67 molecules, IC50 results are on record in patent publication US11440907B1 (Merck Patent GmbH, priority 2018, dated 2022).

Each structure is given as a SMILES string. Where only a bound is given, the exact number is not on record here.

One test concerns XBP1(u)-luciferase splicing reporter in HepG2 hepatoma cells. Nature of the test: HepG2 XBP1 reporter assay (XBP1(u)-Luc). The note with it: 6 hours after compound addition, Table 4. The class given is cell-based. The text has this:
HepG2 XBP1 Reporter Assay
HepG2 hepatoma cells were transduced with a retrovirus encoding the cDNA for unspliced (u) XBP1, which contains a non-processed intron, fused to the cDNA for firefly luciferase. Upon induction of ER stress, the non-processed intron of XBP1(u) is spliced out by active IRE1alpha endonuclease. The resulting spliced (s) XBP1 is now in frame with luciferase which causes the production of active luciferase protein, resulting in bioluminescence
HepG2 XBP1(u)-Luc cells were plated […] Cultured cells with a stably transfected reporter construct were plated at approximately 30,000 cells per well into 96 well multi-well plates for twenty four hours. The testing compounds were then added to the wells in 3-fold serial dilutions using a twenty seven micromolar top concentration. A series of control wells for each cell type received only compound solvent. Six hours after the addition of compound, reporter activity for luciferase was assayed, by addition of the SteadyGlo luminescence reagent (Promega). The reporter luminescence activity was measured using Pherastar plate reader (BMG Labtech). Readings was normalized to DMSO only treated cells, and normalized activities were then used in the IC50 calculations. The HepG2 XBP1 reporter assay data are summarized in Tables 3-5: A<0.6 μM; 0.6 μM≤B<2.0 μM; 2.0 μM≤C<5.0 μM; D≥5.0 μM.
On the technique in general: Reporter assays use an easily measured gene product as a stand-in for the process of interest.
In general, IC50 refers to the concentration at which inhibition is half-maximal. `COc1cc(Cl)c([C@H]2COCCCN2c2cc(C)nc(N)n2)cc1O` [C-95] registered an IC50 of less than 600 nM.

The test is the same for the next values; noted with them: Homo sapiens, 6 hours after compound addition, Table 4.
In turn, `Cc1cc(N2CCCOCC2c2cc(CS(C)(=O)=O)ccc2Cl)nc(N)n1` (stereo in doubt) [C-52, 4-[(R)-3-(2-Chloro-5-methanesulfonylmethyl-phenyl)-[1,4]oxazepan-4-yl]-6-methyl-pyrimidin-2-ylamine] yielded an IC50 of 600 to 2000 nM.
On the same count and under the same terms, to `Cc1cc(N2CCCOCC2c2cc(S(N)(=O)=O)c(Cl)cc2Cl)nc(N)n1` (stereo not shown) [C-8] belongs 600 to 2000 nM; to `Cc1cc(N2CCCOCC2c2cc(O)c(Cl)cc2Cl)nc(N)n1` (stereo not shown) [C-9], 600 to 2000 nM.
The same measure, in the same setting: to `Cc1cc(N2CCCOCC2c2cc(C)c(Cl)cc2Cl)nc(N)n1` (stereo not shown) [C-10] belongs 2000 to 5000 nM; to `CNc1cc(Cl)c(C2COCCCN2c2cc(C)nc(N)n2)cc1C` (stereo not shown) [C-25], less than 600 nM; to `Cc1cc(N2CCCOCC2c2cc3c(cc2Cl)CCC3)nc(N)n1` (stereo not shown) [C-26], 600 to 2000 nM.
On the same count and under the same terms, to `Cc1cc(Cl)c(C2COCCCN2c2cc(N)nc(N)n2)cc1C` (stereo not shown) [C-27] belongs 600 to 2000 nM; to `COc1cc(Cl)c(C2COCCCN2c2cc(C)nc(N)n2)cc1F` (stereo not shown) [C-28], 600 to 2000 nM.
Take `CCOc1cc(C2COCCCN2c2cc(C)nc(N)n2)c(Cl)cc1OC` (stereo not shown) [C-29]: the IC50 was less than 600 nM.
Regarding `Cc1cc(N2CCCOCC2c2cc3c(cc2Cl)NCCC3)nc(N)n1` (stereo not shown) [C-43], the IC50 was less than 600 nM.
The molecule `COC(=O)COc1cc(Cl)c(C2COCCCN2c2cc(C)nc(N)n2)cc1OC` (stereo not shown) [C-44] gave an IC50 of 600 to 2000 nM.
Regarding `C=CCOc1cc(Cl)c(C2COCCCN2c2cc(C)nc(N)n2)cc1OC` (stereo not shown) [C-45], the IC50 was 600 to 2000 nM.
Same read-out and setting: the figure for `COc1cc(C2COCCCN2c2cc(C)nc(N)n2)c(Cl)cc1Cl` (stereo not shown) [C-46] is 2000 to 5000 nM; for `CCCOc1cc(Cl)c(C2COCCCN2c2cc(C)nc(N)n2)cc1OC` (stereo not shown) [C-47] it is 600 to 2000 nM; for `Cc1cc(N2CCCOCC2c2cc(F)c(-c3ccncc3)cc2Cl)nc(N)n1` (stereo not shown) [C-48] it is 600 to 2000 nM.
In turn, `Cc1cc(N2CCCOC[C@@H]2c2ccc(CS(C)(=O)=O)cc2F)nc(N)n1` [C-50, 4-[(S)-3-(2-Fluoro-4-methanesulfonylmethyl-phenyl)-[1,4]oxazepan-4-yl]-6-methyl-pyrimidin-2-ylamine] gave an IC50 of less than 600 nM.
Still for that read-out and setting: the figure for `Cc1cc(N2CCCOCC2c2ccc(OCC(N)=O)cc2Cl)nc(N)n1` (stereo not shown) [C-53, 2-{4-[4-(2-Amino-6-methyl-pyrimidin-4-yl)-[1,4]oxazepan-3-yl]-3-chloro-phenoxy}-acetamide] is less than 600 nM; for `Cc1cc(N)nc(N2CCCOCC2c2cc3c(cc2Cl)CCN3C)c1` (stereo not shown) [C-54] it is less than 600 nM.
In turn, `Cc1cc(N2CCCOCC2c2cc3c(cc2Cl)OCC(C)(C)CO3)nc(N)n1` (stereo not shown) [C-55] registered an IC50 of 600 to 2000 nM.
On to `COc1cc(Cl)c(C2COCCCN2c2cc(C)nc(N)n2)cc1OC1CCC1` (stereo not shown) [C-56], for which the IC50 was 2000 to 5000 nM.
Still for that read-out and setting: to `Cc1cc(N2CCCOCC2c2cc(Cl)c(OC(F)F)cc2Cl)nc(N)n1` (stereo not shown) [C-57] belongs 600 to 2000 nM; to `Cc1cc(N2CCCOC[C@@H]2c2cc3c(cc2Cl)NCC3)nc(N)n1` [C-59], less than 600 nM.
Same read-out and setting: to `Cc1cc(N2CCCOCC2c2ccc(O[C@H](C)CO)cc2Cl)nc(N)n1` (stereo partly drawn) [C-60, (R)-2-{4-[4-(2-Amino-6-methyl-pyrimidin-4-yl)-[1,4]oxazepan-3-yl]-3-chloro-phenoxy}-propan-1-ol] belongs 600 to 2000 nM.
Molecule `Cc1cc(N2CCCOCC2c2ccc(OC[C@H](O)CO)cc2Cl)nc(N)n1` (stereo partly drawn) [C-61, (R)-3-{4-[4-(2-Amino-6-methyl-pyrimidin-4-yl)-[1,4]oxazepan-3-yl]-3-chloro-phenoxy}-propane-1,2-diol] had an IC50 of less than 600 nM.
Regarding `Cc1cc(N2CC3(CC3)COCC2c2ccc(CS(C)(=O)=O)cc2Cl)nc(N)n1` (stereo not shown) [C-62, 4-[7-(2-Chloro-4-methanesulfonylmethyl-phenyl)-5-oxa-8-aza-spiro[2.6]non-8-yl]-6-methyl-pyrimidin-2-ylamine], the IC50 is not below 5000 nM.
On the same count and under the same terms, to `Cc1cc(N2CC(C)COCC2c2ccc(CS(C)(=O)=O)cc2Cl)nc(N)n1` (stereo not shown) [C-63, 4-[3-(2-Chloro-4-methanesulfonylmethyl-phenyl)-6-methyl-[1,4]oxazepan-4-yl]-6-methyl-pyrimidin-2-ylamine] belongs not below 5000 nM; to `Cc1cc(N2CCCOC[C@@H]2c2ccc(OC[C@@H](O)CO)cc2Cl)nc(N)n1` [C-64, (S)-3-{4-[(S)-4-(2-Amino-6-methyl-pyrimidin-4-yl)-[1,4]oxazepan-3-yl]-3-chloro-phenoxy}-propane-1,2-diol], 2000 to 5000 nM.
`Cc1cc(N2CCCOC[C@@H]2c2cc3c(cc2Cl)OCC(=O)N3)nc(N)n1` [C-67]: the IC50 is not below 5000 nM.
In turn, `Cc1cc(N2CCCOC[C@H]2c2cc3c(cc2Cl)OCC(=O)N3)nc(N)n1` [C-68] yielded an IC50 of less than 600 nM.
On the same count and under the same terms, the figure for `Cc1cc(N2CCCOC[C@@H]2c2cc3c(cc2Cl)OCCO3)nc(N)n1` [C-70] is less than 600 nM.
On the same count and under the same terms, to `Nc1nccc(N2CCCOC[C@H]2c2cc3c(cc2Cl)OCCCO3)n1` [C-71] belongs not below 5000 nM.
On the same count and under the same terms, the figure for `Nc1nccc(N2CCCOC[C@@H]2c2cc3c(cc2Cl)OCCCO3)n1` [C-72] is less than 600 nM; for `Cc1cc(N2CCCOCC2c2ccc(CS(C)(=O)=O)cc2OC(F)F)nc(N)n1` (stereo not shown) [C-75] it is less than 600 nM; for `COc1cc(C2COCCCN2c2cc(C)nc(N)n2)c(Cl)cc1N` (stereo not shown) [C-76] it is less than 600 nM.
For the molecule `Cc1cc(N2CCCOCC2c2cc(N)c(C(F)(F)F)cc2Cl)nc(N)n1` (stereo not shown) [C-77], the IC50 was in the range of 600 to 2000 nM.
The molecule `COc1cc([C@H]2COCCCN2c2cc(C)nc(N)n2)c(Cl)cc1O` [C-78] gave an IC50 of less than 600 nM.
Still for that read-out and setting: the figure for `COc1cc([C@@H]2COCCCN2c2cc(C)nc(N)n2)c(Cl)cc1O` [C-79] is not below 5000 nM.
Same read-out and setting: to `COc1cc(Cl)c([C@H]2COCCCN2c2cc(C)nc(N)n2)cc1OC` [C-80] belongs less than 600 nM.
Still for that read-out and setting: to `COc1cc(Cl)c([C@@H]2COCCCN2c2cc(C)nc(N)n2)cc1OC` [C-81] belongs not below 5000 nM.
Molecule `Cc1cc(N2CCCOCC2c2ccc(CS(C)(=O)=O)nc2Cl)nc(N)n1` (stereo not shown) [C-82] gave an IC50 of 600 to 2000 nM.
Same read-out and setting: the figure for `CCOc1cc(Cl)c([C@H]2COCCCN2c2cc(C)nc(N)n2)cc1OC` [C-85] is less than 600 nM.
`CCOc1cc(Cl)c([C@@H]2COCCCN2c2cc(C)nc(N)n2)cc1OC` [C-86] returned an IC50 not below 5000 nM.
Same read-out and setting: the figure for `Cc1cc(N2CCCOC[C@@H]2c2cc(Cl)c(O)cc2Cl)nc(N)n1` [C-87] is 600 to 2000 nM; for `Cc1cc(N2CCCOCC2c2cc3c(cc2Cl)CCCN3)nc(N)n1` (stereo not shown) [C-88] it is 2000 to 5000 nM.
Still for that read-out and setting: to `CCOC(=O)COc1cc(Cl)c(C2COCCCN2c2cc(C)nc(N)n2)cc1OC` (stereo not shown) [C-89] belongs 600 to 2000 nM.
Still for that read-out and setting: to `Cc1cc(N2CCCOCC2c2cc3c(cc2Cl)OCC2(CC2)CO3)nc(N)n1` (stereo not shown) [C-90] belongs less than 600 nM.
In the case of `CCCOc1cc(Cl)c(C2COCCCN2c2cc(C)nc(N)n2)cc1OCC` (stereo not shown) [C-91], the IC50 fell in the range of 600 to 2000 nM.
The same measure, in the same setting: to `Cc1cc(N2CCCOC[C@@H]2c2cc3c(cc2Cl)n(C)c(=O)n3C)nc(N)n1` [C-93] belongs less than 600 nM; to `COc1cc(Cl)c([C@@H]2COCCCN2c2cc(C)nc(N)n2)cc1O` [C-94], less than 600 nM; to `Cc1cc(N2CCCOCC2c2cc3c(cc2Cl)COCO3)nc(N)n1` (stereo not shown) [C-96], 600 to 2000 nM.
Still for that read-out and setting: the figure for `COc1cc(C2COCCCN2c2cc(C)nc(N)n2)c(Cl)cc1OCC(N)=O` (stereo not shown) [C-97] is 600 to 2000 nM.
The same measure, in the same setting: the figure for `COc1cc(C2COCCCN2c2cc(C)nc(N)n2)c(Cl)cc1OCC#N` (stereo not shown) [C-98] is less than 600 nM.
As for `COc1cc(Cl)c(C2COCCCN2c2cc(C)nc(N)n2)cc1C` (stereo not shown) [C-99], the IC50 is 600 to 2000 nM.
The same measure, in the same setting: to `Cc1cc(N2CCCOCC2c2cc(Cl)c(F)cc2Cl)nc(N)n1` (stereo not shown) [C-100] belongs 2000 to 5000 nM; to `COc1cc(C2COCCCN2c2nc(C)nc(N)n2)c(Cl)cc1N1CCCCC1` (stereo not shown) [C-101], 600 to 2000 nM.
Still for that read-out and setting: to `COc1cc(C2COCCCN2c2ccnc(N)n2)c(Cl)cc1OC1CCCC1` (stereo not shown) [C-102] belongs 600 to 2000 nM.
Still for that read-out and setting: the figure for `CCOc1cc(Cl)c([C@H]2COCCCN2c2cc(C)nc(N)n2)cc1OCC` [C-103] is less than 600 nM.
`CCOc1cc(Cl)c([C@@H]2COCCCN2c2cc(C)nc(N)n2)cc1OCC` [C-104] yielded an IC50 not below 5000 nM.
With `CSCOc1ccc(C2COCCCN2c2cc(C)nc(N)n2)c(Cl)c1` (stereo not shown) [C-105, 4-[3-(2-Chloro-4-methylsulfanylmethoxy-phenyl)-[1,4]oxazepan-4-yl]-6-methyl-pyrimidin-2-ylamine], the IC50 is less than 600 nM.
Same read-out and setting: the figure for `CC[C@@H]1COC[C@@H](c2ccc(CS(C)(=O)=O)cc2Cl)N(c2cc(C)nc(N)n2)C1` [C-110] is not below 5000 nM; for `Cc1cc(N2CCCOCC2c2cc(C)c(N3CCCC3)cc2Cl)nc(N)n1` (stereo not shown) [C-112] it is 600 to 2000 nM; for `Cc1cc(N2CCCOCC2c2ccc(CS(C)(=O)=O)cc2OC(F)(F)F)nc(N)n1` (stereo not shown) [C-113] it is less than 600 nM.
The same measure, in the same setting: the figure for `Cc1cc(N2CCCOC[C@H]2c2cc(C)c(N)cc2Cl)nc(N)n1` [C-114] is not below 5000 nM; for `Cc1cc(N2CCCOC[C@@H]2c2cc(C)c(N)cc2Cl)nc(N)n1` [C-115] it is less than 600 nM; for `CCOc1cc(Cl)c([C@H]2COCCCN2c2cc(C)nc(N)n2)cc1Cl` [C-117] it is less than 600 nM.
On the same count and under the same terms, to `Cc1cc(N2CCCOC[C@@H]2c2cc(C(F)(F)F)c(N)cc2Cl)nc(N)n1` [C-119] belongs less than 600 nM.
